Experimental data as given in patent US20230398119A1, “COMBINATION THERAPY INVOLVING DIARYL MACROCYCLIC COMPOUNDS” (TURNING POINT THERAPEUTICS, INC., priority 2019, published 2023).

Assays:
HS766T = assay: Pancreatic Cancer Cell Viability Assay; assay type: cell-based; details: Homo sapiens, KRAS Q61H, single agent
Experimental: (§1) Cell proliferation was measured using CellTiter-Glo luciferase-based ATP detection assay (Promega) following the manufacturer's protocol. IC50 determinations were performed using GraphPad Prism software (GraphPad, Inc., San Diego, CA).

Panc 05.04 = assay: Pancreatic Cancer Cell Viability Assay; assay type: cell-based; details: Homo sapiens; Panc 05.04, KRAS G12D; single agent
Experimental: as §1

HPAF-II = assay: Pancreatic Cancer Cell Viability Assay; assay type: cell-based; details: Homo sapiens, KRAS G12D, single agent
Experimental: as §1

Capan-1 = assay: Pancreatic Cancer Cell Viability Assay; assay type: cell-based; details: Homo sapiens; Capan-1, KRAS G12V; single agent
Experimental: as §1

ASPC-1 = assay: Pancreatic Cancer Cell Viability Assay; assay type: cell-based; details: Homo sapiens, ASPC1; ASPC-1, KRAS G12D; single agent
Experimental: as §1

Panc 03.27 = assay: Pancreatic Cancer Cell Viability Assay; assay type: cell-based; details: Homo sapiens, PANC-03-27; Panc 03.27, KRAS G12V; single agent
Experimental: as §1

Panc 10.05 = assay: Pancreatic Cancer Cell Viability Assay; assay type: cell-based; details: Homo sapiens, Panc1005; Panc 10.05, KRAS G12D; single agent
Experimental: as §1

Capan-2 = assay: Pancreatic Cancer Cell Viability Assay; assay type: cell-based; details: Homo sapiens; Capan-2, KRAS G12V; single agent
Experimental: as §1

Calu-6 = assay: NSCLC Cell Viability Assay; assay type: cell-based; details: Homo sapiens; Calu-6, KRAS Q61K; single agent
Experimental: (§2) Cell proliferation was measured using CellTiter-Glo luciferase-based ATP detection assay (Promega) following the manufactures's protocol. IC50 determinations were performed using GraphPad Prism software (GraphPad, Inc., San Diego, CA).

NCI-H727 = assay: NSCLC Cell Viability Assay; assay type: cell-based; details: Homo sapiens; NCI-H727, KRAS G12V; single agent
Experimental: as §2

SW1573 = assay: NSCLC Cell Viability Assay; assay type: cell-based; details: Homo sapiens; SW1573, KRAS G12C; single agent
Experimental: as §2

NCI-H441 = assay: NSCLC Cell Viability Assay; assay type: cell-based; details: Homo sapiens; NCI-H441, KRAS G12V; single agent
Experimental: as §2

A549 = assay: NSCLC Cell Viability Assay; assay type: cell-based; details: Homo sapiens; A549, KRAS G12S; single agent
Experimental: as §2

A-427 = assay: NSCLC Cell Viability Assay; assay type: cell-based; details: Homo sapiens; A-427, KRAS G12D; single agent
Experimental: as §2

NCI-H1792 = assay: NSCLC Cell Viability Assay; assay type: cell-based; details: Homo sapiens; NCI-H1792, KRAS G12C; single agent
Experimental: as §2

NCI-H2009 = assay: NSCLC Cell Viability Assay; assay type: cell-based; details: Homo sapiens; NCI-H2009, KRAS G12A; single agent
Experimental: as §2

LCLC-97TM1 = assay: NSCLC Cell Viability Assay; assay type: cell-based; details: Homo sapiens; LCLC-97TM1, KRAS G12V; single agent
Experimental: as §2

NCI-H1944 = assay: NSCLC Cell Viability Assay; assay type: cell-based; details: Homo sapiens; NCI-H1944, KRAS G13D; single agent
Experimental: as §2

NCI-H460 = assay: NSCLC Cell Viability Assay; assay type: cell-based; details: Homo sapiens; NCI-H460, KRAS Q61H; single agent
Experimental: as §2

DV-90 = assay: NSCLC Cell Viability Assay; assay type: cell-based; details: Homo sapiens; DV-90, KRAS G13D; single agent
Experimental: as §2

NCI-H1373 = assay: NSCLC Cell Viability Assay; assay type: cell-based; details: Homo sapiens; NCI-H1373, KRAS G12C; single agent
Experimental: as §2

HCC1588 = assay: NSCLC Cell Viability Assay; assay type: cell-based; details: Homo sapiens; HCC1588, KRAS G12D; single agent
Experimental: as §2

NCI-H23 = assay: NSCLC Cell Viability Assay; assay type: cell-based; details: Homo sapiens; NCI-H23, KRAS G12C; single agent
Experimental: as §2

Calu-1 = assay: NSCLC Cell Viability Assay; assay type: cell-based; details: Homo sapiens; Calu-1, KRAS G12C; single agent
Experimental: as §2

LU2512 = assay: NSCLC Cell Viability Assay; assay type: cell-based; details: Homo sapiens; LU2512, KRAS G12C; single agent
Experimental: as §2

SW900 = assay: NSCLC Cell Viability Assay; assay type: cell-based; details: Homo sapiens; SW900, KRAS G12V; single agent
Experimental: as §2

SK-LU-1 = assay: NSCLC Cell Viability Assay; assay type: cell-based; details: Homo sapiens; SK-LU-1, KRAS G12D; single agent
Experimental: as §2

COR-L23 = assay: NSCLC Cell Viability Assay; assay type: cell-based; details: Homo sapiens; COR-L23, KRAS G12V; single agent
Experimental: as §2

NCI-H2122 = assay: NSCLC Cell Viability Assay; assay type: cell-based; details: Homo sapiens; NCI-H2122, KRAS G12C; single agent
Experimental: as §2

NCI-H2122 cells = assay: Caspase-Glo 3/7 apoptosis assay; assay type: cell-based, human; details: NCI-H2122 KRAS G12C; single agent; 48 hours; Compound 1 1 μM, trametinib 50 nM
Experimental: (§3) Two thousand cells per well were seeded in 384 well white plate, and then treated with compounds for 24 or 48 hours (37° C., 5% CO2). Cell caspase-3/7 activity, a major hallmark of apoptosis, was measured using Caspase-Glo® 3/7 detection assay (Promega) following the manufactures's protocol.

NCI-H358 cells = assay: Caspase-Glo 3/7 apoptosis assay; assay type: cell-based, human; details: NCI-H358 KRAS G12C; single agent; 48 hours; Compound 1 1 μM, trametinib 50 nM
Experimental: as §3

IC50 (HS766T)	IC50 (Panc 05.04)	IC50 (HPAF-II)	IC50 (Capan-1)	IC50 (ASPC-1)	IC50 (Panc 03.27)	IC50 (Panc 10.05)	IC50 (Capan-2)	IC50 (Calu-6)	IC50 (NCI-H727)	IC50 (SW1573)	IC50 (NCI-H441)	IC50 (A549)	IC50 (NCI-H1792)	IC50 (NCI-H2009)	IC50 (NCI-H1944)	IC50 (NCI-H460)	Compound	IC50 (A-427)	IC50 (LCLC-97TM1)	IC50 (DV-90)	further results
2.49 µM	1.02 µM	3.53 µM	1.04 µM	8.23 µM	1.18 µM	2.77 µM	0.69 µM	1.47 µM	4.53 µM	2.59 µM	5.21 µM	1.36 µM	1.32 µM	2.28 µM	2.62 µM	1.22 µM	C[C@H]1CNC(=O)c2cnn3ccc(nc23)N[C@H](C)c2cc(F)ccc2O1 [Compound 1, (7S,13R)-11-fluoro-7,13-dimethyl-6,7,13,14-tetrahydro-1,15-ethenopyrazolo[4,3-f][1,4,8,10]benzoxatriazacyclotridecin-4(5H)-one]	0.83 µM	0.93 µM	7.27 µM	IC50 (NCI-H1373): 4.2 µM; IC50 (HCC1588): 0.82 µM; IC50 (NCI-H23): 3.42 µM; IC50 (Calu-1): 2.3 µM; IC50 (LU2512): 2.5 µM; IC50 (SW900): 2.08 µM; IC50 (SK-LU-1): 0.95 µM; IC50 (COR-L23): 2.2 µM; IC50 (NCI-H2122): 1.16 µM; caspase-3/7 activity (NCI-H2122 cells): modest increases; caspase-3/7 activity (NCI-H358 cells): modest increases
0.01 µM	0.02 µM	0.04 µM	0.03 µM	0.05 µM	1.48 µM	0.3 µM	0.08 µM	0.012 µM	0.003 µM	> 10 µM	> 10 µM	0.055 µM	0.051 µM	> 10 µM	> 10 µM	0.07 µM	CC(=O)Nc1cccc(-n2c(=O)n(C3CC3)c(=O)c3c(Nc4ccc(I)cc4F)n(C)c(=O)c(C)c32)c1 [Trametinib, N-(3-{3-cyclopropyl-5-[(2-fluoro-4-iodophenyl)amino]-6,8-dimethyl-2,4,7-trioxo-3,4,6,7-tetrahydropyrido[4,3-d]pyrimidin-1(2H)-yl}phenyl)acetamide]	0.06 µM	0.344 µM	0.014 µM	IC50 (NCI-H1373): > 10 µM; IC50 (HCC1588): > 10 µM; IC50 (NCI-H23): 0.063 µM; IC50 (Calu-1): > 10 µM; IC50 (LU2512): 2.53 µM; IC50 (SW900): 0.074 µM; IC50 (SK-LU-1): > 10 µM; IC50 (COR-L23): 0.164 µM; IC50 (NCI-H2122): 0.01 µM; caspase-3/7 activity (NCI-H2122 cells): increased; caspase-3/7 activity (NCI-H358 cells): increased
